US11130750B2, “Calcium channel inhibitors” (Cavion, Inc., priority 2017, dated 2021)

Tested on: Human Glioma cancer cell line U251
Assay: Cell Proliferation Assay by CCK-8 Reagent
Type: cell-based
Conditions: U251 cells, 72 hours incubation, CCK-8, % viability vs vehicle control
Description: Human Glioma cancer cell line U251 was maintained in DMEM (Gibco, Cat #10569-10) supplemented with 10% fetal bovine serum inactivated at 56° C. (Gibco, Cat #10082-147), 100 U/mL penicillin, and 100 μg/mL streptomycin (Gibco, Cat #15140-122) at 37° C. and 1% MEM non-essential amino acid (Sigma, Cat #M7145) in a humid atmosphere containing 5% CO2. The cells were seeded at 2.5×10^3 cells/well in a 96 well plate (BD falcon, Cat #353072) with 200 pt volume/well and kept in 37° C./5% CO2 incubator for 0/N incubation. The seeding density was optimized previously based on growth curve. On the next day, plated cells were incubated with each test compounds at eight different concentrations (100, 50, 25, 12.5, 6.25, 3.125, 1.5 and 0.78) in triplicates. DMSO was used as a Vehicle control and Culture medium was used as blank control for the assay in each plate. The percentage of DMSO was kept uniform across the plate as <1%. The compound treated cells were incubated in 37° C./5% CO2 incubator for 72 hours. After incubation period, […] CCK-8 reagent (Dojindo, Cat #CK04) was added in all the wells and plate was kept in 37° C./5% CO2 incubator for 3 hours. After CCK-8 incubation, absorbance was measured @ 450 nm using Spectrophotometer (BMG, Omega Polar Star). % Viability values at each concentration were calculated with respect to Vehicle control and EC50 values were calculated using graph pad prism software and are shown in Table A.

Structure (SMILES)	EC50 (Homo sapiens, U-251, 72 h) [µM]	EC50 [µM]
CC(C)[C@H]1c2ccc(F)cc2CC[C@@]1(CCN(C)CCC(C)(C)c1nc2ccccc2[nH]1)OC(=O)NCCN(C)C [Example 11, (1S,2S)-2-(2-((3-(1H-Benzo[d]imidazol-2-yl)-3-methylbutyl)(methyl)amino)ethyl)-6-fluoro-1-isopropyl-1,2,3,4-tetrahydronaphthalen-2-yl (2-(dimethylamino)ethyl)carbamate]	2.5	–
COC(=O)O[C@]1(CCN(C)CCCc2nc3ccccc3[nH]2)CCc2cc(F)ccc2[C@@H]1C(C)C [Example 2, (1S,2S)-2-(2-((3-(1H-Benzo[d]imidazol-2-yl)propyl)(methyl)amino)ethyl)-6-fluoro-1-isopropyl-1,2,3,4-tetrahydronaphthalen-2-yl methylcarbonate]	10	–
Cc1ccc(C)c2[nH]c(CCCN(C)CC[C@@]3(OC(=O)N(C)C)CCc4cc(F)ccc4[C@@H]3C(C)C)nc12 [Example 16, (1S,2S)-2-(2-((3-(4,7-dimethyl-1H-benzo[d]imidazol-2-yl)propyl)(methyl)amino)ethyl)-6-fluoro-1-isopropyl-1,2,3,4-tetrahydronaphthalen-2-yl dimethylcarbamate]	6	–
CNC(=O)OC1(CCN(C)CCCc2nc3ccccc3[nH]2)COc2cc(F)ccc2[C@@H]1C(C)C (single isomer, unassigned) [Example 20B]	–	12
CNC(=O)O[C@]1(CCN(C)CCCc2nc3c(C)ccc(C)c3[nH]2)CCc2cc(F)ccc2[C@@H]1C(C)C [Example 3, (1S,2S)-2-(2-((3-(4,7-Dimethyl-1H-benzo[d]imidazol-2-yl)propyl)(methyl)amino)ethyl)-6-fluoro-1-isopropyl-1,2,3,4-tetrahydronaphthalen-2-yl methylcarbamate]	6	–

Further lines, results first:

EC50 (Homo sapiens, U-251, 72 h) [µM]	EC50 [µM]	Structure (SMILES)
12	–	COCC(=O)O[C@]1(CCN(C)CCCc2nc3ccccc3[nH]2)CCc2cc(F)ccc2[C@@H]1C(C)C [Mibefradil, mibefradil, reference compound]
–	9	CNC(=O)OC1(CCN(C)CCCc2nc3c(C)ccc(C)c3[nH]2)COc2cc(F)ccc2[C@@H]1C(C)C (stereo partly drawn) [Example 21B, (4S)-3-(2-((3-(4,7-Dimethyl-1H-benzo[d]imidazol-2-yl)propyl)(methyl)amino)ethyl)-7-fluoro-4-isopropylchroman-3-yl methylcarbamate]
4.6	–	CC(C)[C@H]1c2ccc(F)cc2CC[C@@]1(CCN(C)CCC(C)(C)c1nc2ccccc2[nH]1)OC(=O)NCCN1CCCC1 [Example 13, (1S,2S)-2-(2-((3-(1H-Benzo[d]imidazol-2-yl)-3-methylbutyl)(methyl)amino)ethyl)-6-fluoro-1-isopropyl-1,2,3,4-tetrahydronaphthalen-2-yl (2-(pyrrolidin-1-yl)ethyl)carbamate]
12	–	COCCNC(=O)O[C@]1(CCN(C)CCC(C)(C)c2nc3ccccc3[nH]2)CCc2cc(F)ccc2[C@@H]1C(C)C [Example 12, (1S,2S)-2-(2-((3-(1H-Benzo[d]imidazol-2-yl)-3-methylbutyl)(methyl)amino)ethyl)-6-fluoro-1-isopropyl-1,2,3,4-tetrahydronaphthalen-2-yl (2-methoxyethyl)carbamate]
9.5	–	CNC(=O)O[C@]1(CCN(C)CCC(C)(C)c2nc3ccccc3[nH]2)CCc2cc(F)ccc2[C@@H]1C(C)C [Example 10, (1S,2S)-2-(2-((3-(1H-Benzo[d]imidazol-2-yl)-3-methylbutyl)(methyl)amino)ethyl)-6-fluoro-1-isopropyl-1,2,3,4-tetrahydronaphthalen-2-yl methylcarbamate]
23	–	CC(C)[C@H]1c2ccc(F)cc2CC[C@@]1(CCN(C)CCC1(c2nc3ccccc3[nH]2)CC1)OC(=O)N1CCOCC1 [Example 19, (1S,2S)-2-(2-((2-(1-(1H-Benzo[d]imidazol-2-yl)cyclopropyl)ethyl)(methyl)amino)ethyl)-6-fluoro-1-isopropyl-1,2,3,4-tetrahydronaphthalen-2-yl morpholine-4-carboxylate]
